Data: PubChem BioAssay AID1963978 (Molecular Pharmacology Branch, DTP, NCI, 2024)

Tested on: 616215-338-R-J1-PDC spheroids with HUVEC/MSC, viability
Test: Anticancer human tumor 616215-338-R-J1-PDC patient-derived colon adenocarcinoma cell line growth inhibition [PI3K]
Conditions: for IC50: curve of first compound; for viability, T/C: stronger effect = lower value
Summary of the method: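 Combination activity was assessed by viability in multicellular tumor spheroids carrying HUVEC and MSC components. Agents were tested with PI3K inhibitors from a Cmax-based top dose (or 10 microM) downward in half-log increments.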

[1] = second compound 0.0316 µM, first compound 0.0316 µM
[2] = second compound 0.0316 µM, first compound 0.1 µM
[3] = second compound 0.0316 µM, first compound 0.316 µM
[4] = second compound 0.0316 µM, first compound 1 µM
[5] = second compound 0.0316 µM, first compound 3.16 µM
[6] = second compound 0.0316 µM, first compound 10 µM
[7] = second compound 0.1 µM, first compound 0.0316 µM
[8] = second compound 0.1 µM, first compound 0.1 µM
[9] = second compound 0.1 µM, first compound 0.316 µM
[10] = second compound 0.1 µM, first compound 1 µM
[11] = second compound 0.1 µM, first compound 3.16 µM
[12] = second compound 0.1 µM, first compound 10 µM
[13] = second compound 0.316 µM, first compound 0.0316 µM
[14] = second compound 0.316 µM, first compound 0.1 µM
[15] = second compound 0.316 µM, first compound 0.316 µM
[16] = second compound 0.316 µM, first compound 1 µM
[17] = second compound 0.316 µM, first compound 3.16 µM
[18] = second compound 0.316 µM, first compound 10 µM
[19] = second compound 1 µM, first compound 0.0316 µM
[20] = second compound 1 µM, first compound 0.1 µM
[21] = second compound 1 µM, first compound 0.316 µM
[22] = second compound 1 µM, first compound 1 µM
[23] = second compound 1 µM, first compound 3.16 µM
[24] = second compound 1 µM, first compound 10 µM
[25] = second compound 3.16 µM, first compound 0.0316 µM
[26] = second compound 3.16 µM, first compound 0.1 µM
[27] = second compound 3.16 µM, first compound 0.316 µM
[28] = second compound 3.16 µM, first compound 1 µM
[29] = second compound 3.16 µM, first compound 3.16 µM
[30] = second compound 3.16 µM, first compound 10 µM
[31] = second compound 10 µM, first compound 0.0316 µM
[32] = second compound 10 µM, first compound 0.1 µM
[33] = second compound 10 µM, first compound 0.316 µM
[34] = second compound 10 µM, first compound 1 µM
[35] = second compound 10 µM, first compound 3.16 µM
[36] = second compound 10 µM, first compound 10 µM
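Further: spheroids exposed to agents for seven days before the viability read.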

CC1(C)CCC(Nc2ncc(C(F)(F)F)c(-c3c[nH]c4c(P(C)(C)=O)c(C#N)ccc34)n2)CN1 (stereo unspecified) + Cc1nc(NC(=O)N2CCCC2C(N)=O)sc1-c1ccnc(C(C)(C)C(F)(F)F)c1
IC50 (second compound 0.0316 µM): 3.65 µM
IC50 (second compound 0.1 µM): 3.77 µM
IC50 (second compound 0.316 µM): 3.66 µM
IC50 (second compound 1 µM): 3.35 µM
IC50 (second compound 3.16 µM): 1.1 µM
IC50 (second compound 10 µM): 0.185 µM
viability, T/C [1]: 50.7%
viability, T/C [2]: 54.1%
viability, T/C [3]: 54.7%
viability, T/C [4]: 56.1%
viability, T/C [5]: 69.7%
viability, T/C [6]: 0.38%
viability, T/C [7]: 64.5%
viability, T/C [8]: 52%
viability, T/C [9]: 59.5%
viability, T/C [10]: 60%
viability, T/C [11]: 59.7%
viability, T/C [12]: 0.38%
viability, T/C [13]: 51.8%
viability, T/C [14]: 57.8%
viability, T/C [15]: 59.7%
viability, T/C [16]: 52.8%
viability, T/C [17]: 63.6%
viability, T/C [18]: 0.32%
viability, T/C [19]: 61.9%
viability, T/C [20]: 45.8%
viability, T/C [21]: 53.7%
viability, T/C [22]: 55.8%
viability, T/C [23]: 52.5%
viability, T/C [24]: 0.18%
viability, T/C [25]: 53.5%
viability, T/C [26]: 47.5%
viability, T/C [27]: 48.3%
viability, T/C [28]: 57.6%
viability, T/C [29]: 31.2%
viability, T/C [30]: 0.39%
viability, T/C [31]: 61.6%
viability, T/C [32]: 51.4%
viability, T/C [33]: 46.2%
viability, T/C [34]: 37.1%
viability, T/C [35]: 20.2%
viability, T/C [36]: 0.89%

C[C@@H](NC(=O)c1ncnc(N)c1Cl)c1ncc(C(=O)Nc2cc(C(F)(F)F)c(Cl)cn2)s1 + Cc1nc(NC(=O)N2CCCC2C(N)=O)sc1-c1ccnc(C(C)(C)C(F)(F)F)c1
IC50 (second compound 0.0316 µM): > 10 µM
IC50 (second compound 0.1 µM): > 10 µM
IC50 (second compound 0.316 µM): > 10 µM
IC50 (second compound 1 µM): > 10 µM
IC50 (second compound 3.16 µM): > 10 µM
IC50 (second compound 10 µM): 4.85 µM
viability, T/C [1]: 91.9%
viability, T/C [2]: 101%
viability, T/C [3]: 94.3%
viability, T/C [4]: 105%
viability, T/C [5]: 112%
viability, T/C [6]: 89.2%
viability, T/C [7]: 111%
viability, T/C [8]: 99.1%
viability, T/C [9]: 101%
viability, T/C [10]: 115%
viability, T/C [11]: 93.7%
viability, T/C [12]: 77.7%
viability, T/C [13]: 107%
viability, T/C [14]: 110%
viability, T/C [15]: 106%
viability, T/C [16]: 119%
viability, T/C [17]: 109%
viability, T/C [18]: 77.2%
viability, T/C [19]: 112%
viability, T/C [20]: 112%
viability, T/C [21]: 107%
viability, T/C [22]: 108%
viability, T/C [23]: 108%
viability, T/C [24]: 62.3%
viability, T/C [25]: 102%
viability, T/C [26]: 112%
viability, T/C [27]: 103%
viability, T/C [28]: 98.9%
viability, T/C [29]: 81.1%
viability, T/C [30]: 53.1%
viability, T/C [31]: 97.5%
viability, T/C [32]: 107%
viability, T/C [33]: 88.9%
viability, T/C [34]: 104%
viability, T/C [35]: 68.3%
viability, T/C [36]: 19.2%

CCN1CCN(Cc2ccc(Nc3ncc(F)c(-c4cc(F)c5nc(C)n(C(C)C)c5c4)n3)nc2)CC1 + CC(Nc1ccc2c(c1)OCCn1cc(N3C(=O)OCC3C(F)F)nc1-2)C(N)=O
IC50 (second compound 0.00316 µM): > 1 µM
IC50 (second compound 0.01 µM): > 1 µM
IC50 (second compound 0.0316 µM): > 1 µM
IC50 (second compound 0.1 µM): > 1 µM
IC50 (second compound 0.316 µM): > 1 µM
IC50 (second compound 1 µM): > 1 µM
viability, T/C (second compound 0.00316 µM, first compound 0.00316 µM): 93.8%
viability, T/C (second compound 0.00316 µM, first compound 0.01 µM): 100%
viability, T/C (second compound 0.00316 µM, first compound 0.0316 µM): 96.3%
viability, T/C (second compound 0.00316 µM, first compound 0.1 µM): 98.7%
viability, T/C (second compound 0.00316 µM, first compound 0.316 µM): 131%
viability, T/C (second compound 0.00316 µM, first compound 1 µM): 111%
viability, T/C (second compound 0.01 µM, first compound 0.00316 µM): 94.9%
viability, T/C (second compound 0.01 µM, first compound 0.01 µM): 102%
viability, T/C (second compound 0.01 µM, first compound 0.0316 µM): 98.5%
viability, T/C (second compound 0.01 µM, first compound 0.1 µM): 102%
viability, T/C (second compound 0.01 µM, first compound 0.316 µM): 113%
viability, T/C (second compound 0.01 µM, first compound 1 µM): 102%
viability, T/C (second compound 0.0316 µM, first compound 0.00316 µM): 103%
viability, T/C (second compound 0.0316 µM, first compound 0.01 µM): 111%
viability, T/C [1]: 99.8%
viability, T/C [2]: 107%
viability, T/C [3]: 112%
viability, T/C [4]: 96.6%
viability, T/C (second compound 0.1 µM, first compound 0.00316 µM): 104%
viability, T/C (second compound 0.1 µM, first compound 0.01 µM): 94.3%
viability, T/C [7]: 99.3%
viability, T/C [8]: 108%
viability, T/C [9]: 107%
viability, T/C [10]: 74.5%
viability, T/C (second compound 0.316 µM, first compound 0.00316 µM): 102%
viability, T/C (second compound 0.316 µM, first compound 0.01 µM): 110%
viability, T/C [13]: 105%
viability, T/C [14]: 97.8%
viability, T/C [15]: 96.1%
viability, T/C [16]: 57.6%
viability, T/C (second compound 1 µM, first compound 0.00316 µM): 113%
viability, T/C (second compound 1 µM, first compound 0.01 µM): 90.9%
viability, T/C [19]: 84.6%
viability, T/C [20]: 85.5%
viability, T/C [21]: 73.7%
viability, T/C [22]: 49.6%
